System: inner retina (INL, IPL, retinal ganglion cell layer)
Assay: Transient retinal ischemia-reperfusion injury with intravitreous injection; morphometric analysis of inner retina
Type: in vivo, C57/B16 mice
Settings: for protection of the retinal ganglion cell layer (in words): 7 days post ischemia, free single bolus or nanospheres
Protocol: Induction of transient retinal ischemia in C57/B16 mice: Animal experiments were conducted in accordance with ARVO guidelines and were approved by the Animal Care and Use Committee of Yale University School of Medicine. Transient retinal ischemia was induced in one eye and the contralateral eye served as control. During the operation and recovery period, animals were placed on water heating pads at 37° C. […] Briefly, animals were anesthetized by i.p. injection of a mixture of 100 mg/kg Ketamine+10 mg/kg Xylazine. […] The anterior chambers were cannulated in fully anesthetized animals with a 30-gauge infusion needle connected by PE10 polyethylene tubing and IV set to a physiological saline reservoir. The intraocular pressure (IOP) of the cannulated eye was raised to 120 mmHg for 60 minutes by elevating the saline reservoir. Retinal ischemia was confirmed by direct microscopic observation of whitening of the fundus. The reperfusion was confirmed visually when needle was withdrawn from the anterior chamber. One group of animals was treated with Vetropolycin® ophthalmic ointment (Pharmaderm, Melville, N. Y.) on the ischemic eyes and allowed to recover for 24 hours, 48 hours, 7 days and 14 days before sacrifice. Other groups were kept for intravitreous injections of the PEDF and PEDF peptides.
Intravitreous injection of PEDF, PEDF peptides and encapsulated PEDF peptide: One group of animals remained uninjected to monitor ischemic damage. All other groups received intravitreal injections, which were performed under an ophthalmic microscope. […] Intravitreous injection was performed with 30-gauge beveled needle attached to PE10 polyethylene tubing and a 10 μl syringe (Hamilton, Reno, Nev.). The injections were performed through the sclera, approximately 1 mm behind the limbus. The needle remained in the vitreous cavity for 30 seconds after injection then gently withdrawn. Control groups were injected with 1 μl PBS, 1 μl control peptide (1 μg/μl), or blank nanospheres (0.1 mg/μl). […] Vetropolycin® ointment was applied to the injected eyes and animals were allowed to recover for 48 hours or 7 days before sacrifice.
Preparation of retinal tissue: at designated time points, mice were sacrificed by carbon dioxide inhalation followed by, in some cases, cervical dislocation. The eyes were enucleated, fixed in 4% paraformaldehyde for 24 hours, washed with PBS and embedded in paraffin. Five (5) μm thick sections that included the optic nerve were collected. Sections were processed for TUNEL, immunocytochemistry, or histochemical staining with hematoxylin and eosin (Surgipath, Ltd, Richmond, Ill.) using standard methods.
Morphologic and Morphometric Analysis: For each eye, three sections, which included the optic disk and were spaced at least 20 μm apart, were used for morphological analysis. The fields analyzed were 4×250 μm zones sampled from all retinal eccentricities. These zones were 500 μm away from the edge of optic disk or the ora serrata. The average measurement of these 4 zones was used for statistical analysis. The mean thickness of inner nuclear layer (INL) and inner plexiform layer (IPL) was measured using Axiovision3.1 software (Carl Zeiss MicroImaging, Inc., Thornwood, N.Y.). Total surviving cells in the retinal ganglion cell layer at the same locations were counted using light microscopy.
Statistical analysis: Twelve fields per retina were analyzed for each treatment, and a total of 72 fields were used. For statistical analysis, one-way analysis of variance (ANOVA) and Fisher tests were performed; p<0.05 was taken as significant. Data are presented as means and standard deviations.

Row | Substance | protection of the IPL (in words) (seven days after ischemic injury) | protection of the INL (in words) (seven days after ischemic injury, versus control peptide PEDF136-155) | protection of the retinal ganglion cell layer (in words) | RGCs protected from dying after ischemic injury (after ischemic injury)
1 | PEDF76-95: residues 76 to 95 of human PEDF, TNVLLSPLSVATALSALSLG (SEQ ID NO: 5) ((1)..(20) Residues 76-95 of human PEDF; listed as Homo sapiens) | protected | protected the INL significantly | – | –
2 | PEDF91-110: residues 91 to 110 of human PEDF, ALSLGAEQRTESIIHRALYY (SEQ ID NO: 7) ((1)..(20) Residues 91-110 of human PEDF; listed as Homo sapiens) | – | – | significantly protecting | about 85%
3 | PEDF106-125: residues 106 to 125 of human PEDF, RALYYDLISSPDIHGTYKEL (SEQ ID NO: 9) ((1)..(20) Residues 106-125 of human PEDF; listed as Homo sapiens) | – | – | significantly protecting | –

Reference: patent US20090069241A1, “Compositions and Methods for Use of Pigment Epithelial Derived Factor (PEDF) Peptide Fragments” (Yale University, priority 2006, published 2009)
